The test system of one series is rabbit wounds. Description: Wound healing study in rabbits, 4×4 cm incision on the back. It is filed as in vivo, rabbits (New Zealand White). From the text: (§1) For this study, 23 rabbits (New Zealand White) are taken and kept in a well-fed, healthy and aseptic condition to ensure the perfect outcome of the experimentation.
Nine randomly selected rabbits (New Zealand White) are taken and a 4×4 cm incision was made right on the back of the animals. Following the application of Anesthetic Ketamine (Aneket, Neon Laboratories, India). This has been followed by application of recombinant TGFα to the “treated” group, and application of placebo, wherein except the growth factor, all the other conditions of “treated” group is followed.
It is found to initiate cell proliferation in rabbit wounds within 7 days. […] Thus, the recombinant growth factor TGF α found to be suitable for enhancing the healing of chronic wounds.

Another series concerns L929 cells. Description: MTT assay in L929 cells. It is filed as cell-based. The note with it: for cell viability: MTT, L929 cells. How it is done:
Prior testing in said in vivo model, an in vitro testing for the metabolic activity has been performed through executing MTT assay in a specific cell line.
The MTT assay is carried out in L929 cells (ATCC, USA). […] 92.26%, 90.30% and 88.87% under these concentrations respectively. […] The results obtained are depicted in FIG. 3.

In series [1] the test system is skin (intra-cutaneous reactions). Details: species or system rabbits (New Zealand White). Conditions: rabbit, in vivo.
Text: (§2) The declaration for skin irritation test is hereby made as the recombinant TGFα induced a total mean score of ‘0.55’ in test material and ‘◯’ in solvent following intra-dermal injection.
as §1

Series [2] can be described thus: Antimicrobial / sterility test on test material.
Text: On the safety side, recombinant TGF α passed the skin irritation test, sterility test and cytotoxicity tests, and found to be suitable for enhancing the healing of chronic wounds.
as §2

For orientation: cell viability means a read-out of living cells in per cent, often relative to untreated cells. The low end stands for a greater loss of cells, the high end for better survival. Regarding “recombinant TGF α: recombinant TGF α of 51 amino acids (Sequence ID No.: 1), carved out of 160 amino acid TGF α, expressed in a prokaryotic system”, the “healing of chronic wounds” value in the series on rabbit wounds (rabbit models) is given as “enhance the healing of chronic wounds”. The “wound finding on 14th day” value with rabbit wounds (rabbit models, day 14) is “tissue regeneration and formation of epithelial layer”. Besides, the “time to initiation of cell proliferation in rabbit wounds” value in the series with rabbit wounds (rabbit, 4×4 cm incision) was at most 7 days. In addition, the “vasculature and inflammatory response of the healing wound” value in the series with rabbit wounds (treated vs control, FIGS. 4C and 4T) was “higher number of vasculature and almost no inflammatory response”. The cytotoxicity tests outcome in the series on L929 cells is “passed”. Further, the cell viability in the series on L929 cells (0.0025 μg/ml) is on record as 92.16%; with L929 cells (0.025 μg/ml), 92.26%; in the series on L929 cells (0.25 μg/ml), 90.30%; with L929 cells (2.5 μg/ml), 88.87%. Moreover, the “intra-cutaneous reactions (erythema and edema)” value in series [1] was “No intra-cutaneous reactions such as erythema and edema”. Further, in series [1], the “skin irritation test outcome” value was “passed”. For the same substance, in series [1], the “total mean score, skin irritation test” value was determined as 0.55. Besides, in series [2], the antimicrobial test outcome is recorded as “meeting the requirements for dermal applications”. In addition, the sterility test outcome in series [2] is recorded as “passed”.

Values taken from US20220177533A1, “Recombinant TGF a for wound healing purposes, and the process thereof” (SREE CHITRA TIRUNAL INSTITUTE FOR MEDICAL SCIENCES AND …, priority 2018, published 2022).
